The experiment addresses BRD4 (Homo sapiens, UniProt O60885). The experiment can be described thus: PROTAC degradation in bladder cancer cells by Western blot; blocked by JQ1, MG132 and MLN4924. The class given is cell-based.

Our source for the DC50 values is paper PMC9887192, “Lethal activity of BRD4 PROTAC degrader QCA570 against bladder cancer cells” (Frontiers in Chemistry, 2023).

Broadly, the DC50 is the midpoint of the concentration-degradation curve. A lower DC50 goes with degradation at low concentration.

In turn, `Cc1nnc2n1-c1sc(C#Cc3cnn(CCCC#Cc4cccc5c4CN(C4CCC(=O)NC4=O)C5=O)c3)c(Cc3ccccc3)c1COC2` (stereo not shown) [QCA570] came in with a DC50 of about 1 nM.
